Here are results for 16 compounds from patent US11596639B2, “Substituted indole Mcl-1 inhibitors” (Vanderbilt University, priority 2016, dated 2023).

One test has as its target Mcl-1 (Homo sapiens (Human), UniProt Q07820). Description: TR-FRET binding assay, FITC-Bak peptide and MBP-tagged Mcl-1. To be noted: read-out: Ki for Inhibition of Mcl-1 by TR-FRET assay. On the procedure: Compounds are diluted in DMSO in a 16-point, semilog serial dilution scheme. […] The plate was mixed and incubated for 3 hours at room temperature. […] TR-FRET signal is plotted and IC50 and Ki values are calculated in the same manner as the fluorescence polarization anisotropy based competition assays.
Background: In TR-FRET formats the signal depends on donor and acceptor labels being close together.

Test [1] relates to H929 human cancer cell lines. The test is described as follows: Cellular viability / proliferation (Cell TiterGlo, 72 h). It counts as cell-based. To be noted: Homo sapiens, NCI-H929, 72 h, read-out: GI50 on cellular proliferation of H929 human cancer cell lines, H929 cells, 72 h, Cell TiterGlo, 10% FBS. Summed up: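 Compounds were added as 2-fold serial dilutions from 50 μM (final DMSO <1%) to H929 cells seeded 1,000 per well in 10% FBS medium one day earlier.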

The structures appear in SMILES notation.

Chain of Mcl-1 (Q07820 172-327): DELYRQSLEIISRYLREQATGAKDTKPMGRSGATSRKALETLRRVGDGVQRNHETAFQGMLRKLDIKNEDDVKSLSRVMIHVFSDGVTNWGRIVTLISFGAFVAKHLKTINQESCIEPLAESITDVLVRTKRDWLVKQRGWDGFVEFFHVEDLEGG

For orientation: Ki means a measure of affinity in units of concentration, obtained from inhibition or displacement. With `Cc1cc(OCCCc2c3n(c4c(-c5c(C)nn(C)c5C)c(Cl)ccc24)[C@H](C)CN(c2cn(CCN(C)C)c4ccc(C(=O)O)cc24)C3=O)cc(C)c1Cl` [Example 510, (R)-3-(7-Chloro-10-(3-(4-chloro-3,5-dimethylphenoxy)propyl)-4-methyl-1-oxo-6-(1,3,5-trimethyl-1H-pyrazol-4-yl)-3,4-dihydropyrazino[1,2-a]indol-2(1H)-yl)-1-(2-(dimethylamino)ethyl)-1H-indole-5-carboxylic acid], the Ki on Mcl-1 was < 0.2 nM. In test [1], the GI50 was 240 nM.
In the same order, the values of `Cc1cc(OCCCc2c3n(c4c(-c5c(C)nn(C)c5C)c(Cl)ccc24)[C@H](C)CN(c2cn(CCN4CCCC4)c4ccc(C(=O)O)cc24)C3=O)cc(C)c1Cl` [Example 511, (R)-3-(7-Chloro-10-(3-(4-chloro-3,5-dimethylphenoxy)propyl)-4-methyl-1-oxo-6-(1,3,5-trimethyl-1H-pyrazol-4-yl)-3,4-dihydropyrazino[1,2-a]indol-2(1H)-yl)-1-(2-(pyrrolidin-1-yl)ethyl)-1H-indole-5-carboxylic acid] are < 0.2 nM and 300 nM.
The like results for `COCCn1cc(C(=O)O)c2cccc(N3C[C@@H](C)n4c(c(CCCOc5cc(C)c(Cl)c(C)c5)c5ccc(Cl)c(-c6c(C)nn(C)c6C)c54)C3=O)c21` [Example 512, (R)-7-(7-Chloro-10-(3-(4-chloro-3,5-dimethylphenoxy)propyl)-4-methyl-1-oxo-6-(1,3,5-trimethyl-1H-pyrazol-4-yl)-3,4-dihydropyrazino[1,2-a]indol-2(1H)-yl)-1-(2-methoxyethyl)-1H-indole-3-carboxylic acid] were, in that order, < 0.2 nM and 220 nM.
Consider `Cc1cc(OCCCc2c3n(c4c(-c5c(C)nn(C)c5C)c(Cl)ccc24)[C@H](C)CN(c2cc(OC4CC[N+](C)(C)C4)cc4cc(C(=O)O)n(C)c24)C3=O)cc(C)c1Cl` (stereo partly drawn) [Example 513, 3-((2-Carboxy-7-((R)-7-chloro-10-(3-(4-chloro-3,5-dimethylphenoxy)propyl)-4-methyl-1-oxo-6-(1,3,5-trimethyl-1H-pyrazol-4-yl)-3,4-dihydropyrazino[1,2-a]indol-2(1H)-yl)-1-methyl-1H-indol-5-yl)oxy)-1,1-dimethylpyrrolidin-1-ium 2,2,2-trifluoroacetate], for which the Ki on Mcl-1 is < 0.2 nM. In addition, the GI50 in test [1] was determined as 5300 nM.
In the same order, the values of `C=Cc1ccnc(Cn2c(C(=O)O)cc3cc(C)cc(N4C[C@@H](C)n5c(c(CCCOc6cc(C)c(Cl)c(C)c6)c6ccc(Cl)c(-c7c(C)nn(C)c7C)c65)C4=O)c32)c1` [Example 514, (R)-7-(7-chloro-10-(3-(4-chloro-3,5-dimethylphenoxy)propyl)-4-methyl-1-oxo-6-(1,3,5-trimethyl-1H-pyrazol-4-yl)-3,4-dihydropyrazino[1,2-a]indol-2(1H)-yl)-5-methyl-1-((4-vinylpyridin-2-yl)methyl)-1H-indole-2-carboxylic acid] are < 0.2 nM and < 200 nM.
Consider `Cc1cc(N2C[C@@H](C)n3c(c(CCCOc4cc(C)c(Cl)c(C)c4)c4ccc(Cl)c(-c5c(C)nn(C)c5C)c43)C2=O)c2c(c1)cc(C(=O)O)n2Cc1cc(N2CCN(C)CC2)ccn1` [Example 515, (R)-7-(7-Chloro-10-(3-(4-chloro-3,5-dimethylphenoxy)propyl)-4-methyl-1-oxo-6-(1,3,5-trimethyl-1H-pyrazol-4-yl)-3,4-dihydropyrazino[1,2-a]indol-2(1H)-yl)-5-methyl-1-((4-(4-methylpiperazin-1-yl)pyridin-2-yl)methyl)-1H-indole-2-carboxylic acid], for which the Ki at Mcl-1 was < 0.2 nM. The GI50 in test [1] came to 610 nM.
On to `Cc1cc(N2C[C@@H](C)n3c(c(CCCOc4cc(C)c(Cl)c(C)c4)c4ccc(Cl)c(-c5c(C)nn(C)c5C)c43)C2=O)c2c(c1)cc(C(=O)O)n2Cc1cccc(N2CCN(C)CC2)n1` [Example 516, (R)-7-(7-Chloro-10-(3-(4-chloro-3,5-dimethylphenoxy)propyl)-4-methyl-1-oxo-6-(1,3,5-trimethyl-1H-pyrazol-4-yl)-3,4-dihydropyrazino[1,2-a]indol-2(1H)-yl)-5-methyl-1-((6-(4-methylpiperazin-1-yl)pyridin-2-yl)methyl)-1H-indole-2-carboxylic acid], for which the Ki at Mcl-1 is < 0.2 nM. Besides, the GI50 in test [1] was 330 nM.
Turning to `C=Cc1cccc(Cn2c(C(=O)O)cc3cc(C)cc(N4C[C@@H](C)n5c(c(CCCOc6cc(C)c(Cl)c(C)c6)c6ccc(Cl)c(-c7c(C)nn(C)c7C)c65)C4=O)c32)n1` [Example 517, (R)-7-(7-Chloro-10-(3-(4-chloro-3,5-dimethylphenoxy)propyl)-4-methyl-1-oxo-6-(1,3,5-trimethyl-1H-pyrazol-4-yl)-3,4-dihydropyrazino[1,2-a]indol-2(1H)-yl)-5-methyl-1-((6-vinylpyridin-2-yl)methyl)-1H-indole-2-carboxylic acid], the Ki on Mcl-1 is 0.36 nM. Moreover, in test [1], the GI50 turned out to be 760 nM.
On to `Cc1cc(OCCCc2c3n(c4c(-c5c(C)nn(C)c5C)c(Cl)ccc24)[C@H](C)CN(c2cccc4cc(C(=O)O)n(Cc5ccncn5)c24)C3=O)cc(C)c1Cl` [Example 518, (R)-7-(7-chloro-10-(3-(4-chloro-3,5-dimethylphenoxy)propyl)-4-methyl-1-oxo-6-(1,3,5-trimethyl-1H-pyrazol-4-yl)-3,4-dihydropyrazino[1,2-a]indol-2(1H)-yl)-1-(pyrimidin-4-ylmethyl)-1H-indole-2-carboxylic acid], for which the Ki at Mcl-1 was < 0.2 nM. Moreover, in test [1], the GI50 is 810 nM.
The like results for `Cc1cc(OCCCc2c3n(c4c(-c5c(C)nn(C)c5C)c(Cl)ccc24)[C@H](C)CN(c2cc(OC4CCN(C)CC4)cc4cc(C(=O)O)n(C)c24)C3=O)cc(C)c1Cl` [Example 519, (R)-7-(7-chloro-10-(3-(4-chloro-3,5-dimethylphenoxy)propyl)-4-methyl-1-oxo-6-(1,3,5-trimethyl-1H-pyrazol-4-yl)-3,4-dihydropyrazino[1,2-a]indol-2(1H)-yl)-1-methyl-5-((1-methylpiperidin-4-yl)oxy)-1H-indole-2-carboxylic acid] were, in that order, 0.46 nM and 990 nM.
The like results for `COc1ccc(N2C[C@@H](C)n3c(c(CCCOc4cc(C)c(Cl)c(C)c4)c4ccc(Cl)c(-c5c(C)ncnc5C)c43)C2=O)c2c1cc(C(=O)O)n2Cc1cc(C)ccn1` [Example 520, (R)-7-(7-chloro-10-(3-(4-chloro-3,5-dimethylphenoxy)propyl)-6-(4,6-dimethylpyrimidin-5-yl)-4-methyl-1-oxo-3,4-dihydropyrazino[1,2-a]indol-2(1H)-yl)-4-methoxy-1-((4-methylpyridin-2-yl)methyl)-1H-indole-2-carboxylic acid] were, in that order, < 0.2 nM and < 200 nM.
On to `Cc1cc(OCCCc2c3n(c4c(-c5c(C)nn(C)c5C)c(Cl)ccc24)[C@H](C)CN(c2cc(OC4CCN(C)C4)cc4cc(C(=O)O)n(C)c24)C3=O)cc(C)c1Cl` (stereo partly drawn) [Example 521, 7-((R)-7-chloro-10-(3-(4-chloro-3,5-dimethylphenoxy)propyl)-4-methyl-1-oxo-6-(1,3,5-trimethyl-1H-pyrazol-4-yl)-3,4-dihydropyrazino[1,2-a]indol-2(1H)-yl)-1-methyl-5-((1-methylpyrrolidin-3-yl)oxy)-1H-indole-2-carboxylic acid], for which the Ki on Mcl-1 was < 0.2 nM. Moreover, in test [1], the GI50 turned out to be 610 nM.
For the compound `Cc1cc(OCCCc2c3n(c4c(-c5c(C)nn(C)c5C)c(Cl)ccc24)[C@H](C)CN(c2cc(Oc4ccccn4)cc4cc(C(=O)O)n(C)c24)C3=O)cc(C)c1Cl` [Example 522, (R)-7-(7-Chloro-10-(3-(4-chloro-3,5-dimethylphenoxy)propyl)-4-methyl-1-oxo-6-(1,3,5-trimethyl-1H-pyrazol-4-yl)-3,4-dihydropyrazino[1,2-a]indol-2(1H)-yl)-1-methyl-5-(pyridin-2-yloxy)-1H-indole-2-carboxylic acid], at Mcl-1, the Ki amounted to 0.32 nM. The GI50 in test [1] stood at 750 nM.
In the same order, the values of `Cc1cc(OCCCc2c3n(c4c(-c5c(C)nn(C)c5C)c(Cl)ccc24)[C@H](C)CN(c2cc(NCc4ccccn4)cc4c(C(=O)O)cn(C)c24)C3=O)cc(C)c1Cl` [Example 523, (R)-7-(7-Chloro-10-(3-(4-chloro-3,5-dimethylphenoxy)propyl)-4-methyl-1-oxo-6-(1,3,5-trimethyl-1H-pyrazol-4-yl)-3,4-dihydropyrazino[1,2-a]indol-2(1H)-yl)-1-methyl-5-((pyridin-2-ylmethyl)amino)-1H-indole-3-carboxylic acid] are 0.5 nM and 890 nM.
In the same order, the values of `COCCn1cc(N2C[C@@H](C)n3c(c(CCCOc4cc(C)c(Cl)c(C)c4)c4ccc(Cl)c(-c5c(C)nn(C)c5C)c43)C2=O)c2cc(-c3ncn(C)n3)ccc21` [Example 524, (R)-7-Chloro-10-(3-(4-chloro-3,5-dimethylphenoxy)propyl)-2-(1-(2-methoxyethyl)-5-(1-methyl-1H-1,2,4-triazol-3-yl)-1H-indol-3-yl)-4-methyl-6-(1,3,5-trimethyl-1H-pyrazol-4-yl)-3,4-dihydropyrazino[1,2-a]indol-1(2H)-one] are 0.28 nM and 220 nM.
As for `Cc1cc(OCCCc2c3n(c4c(-c5c(C)nn(C)c5C)c(Cl)ccc24)[C@H](C)CN(c2cn(CC(=O)N4CCOCC4)c4ccc(-c5ncn(C)n5)cc24)C3=O)cc(C)c1Cl` [Example 525, (R)-7-Chloro-10-(3-(4-chloro-3,5-dimethylphenoxy)propyl)-4-methyl-2-(5-(1-methyl-1H-1,2,4-triazol-3-yl)-1-(2-morpholino-2-oxoethyl)-1H-indol-3-yl)-6-(1,3,5-trimethyl-1H-pyrazol-4-yl)-3,4-dihydropyrazino[1,2-a]indol-1(2H)-one], the Ki on Mcl-1 is 0.41 nM. Further, the GI50 in test [1] turned out to be 330 nM.
